Reference: US9511050B2, “Methods and compositions for treating cancer” (GEORGETOWN UNIVERSITY, priority 2013, dated 2016)
Like-named read-outs stand apart in the source and are kept apart here.

Columns and labels:
Format in all cases: cell-based
[1] = test system: TC32 (human ESFT cell line); assay: IC50 activity in TC32 cells
Method: (§1) Compounds provided in Table 2 were prepared using methods similar to those described herein. The structures and IC50 activities of particular compounds in PANC1 (a human pancreatic carcinoma), TC32 (human ESFT cell line), and TC71 (human ESFT cell line) cells are summarized in Table 2.

[2] = test system: TC71 (human ESFT cell line); assay: IC50 activity in TC71 cells
Method: as §1
Growth inhibition of ESFT cells was measured for various concentrations of particular compounds.

[3] = test system: PANC1 (a human pancreatic carcinoma); assay: IC50 activity in PANC1 cells
Method: as §1

[4] = Homo sapiens, TC-32, TC32 cells
[5] = Homo sapiens, TC-71, TC71 cells
[6] = Homo sapiens, PANC-1, PANC1 cells
[7] = PANC1 cells, read-out: IC50 PANC 1

IC50 [1, 4] [µM] | IC50 [2, 5] [µM] | IC50 [3, 6] [µM] | IC50 ([1]; TC32 cells) [µM] | IC50 ([2]; TC71 cells) [µM] | IC50 [3, 7] [µM] | SMILES | potency compared with YK-4-279 ([2]; TC71 cells)
6.32 | 15.8 | 12.6 | – | – | – | O=C(CC1(O)C(=O)Nc2c(Cl)ccc(Cl)c21)c1ccc(Cl)c(Cl)c1 (centres unmarked) [YK-4-287] | –
2.61 | 2.82 | 22.9 | – | – | – | COc1ccc(C(=O)CC2(O)C(=O)Nc3c(Cl)ccc(Cl)c32)c(OC)c1 (centres unmarked) [PT-1-19] | –
≥ 40 | ≥ 40 | ≥ 40 | – | – | – | COc1ccc(C(=O)CC2(O)C(=O)Nc3cccc(Cl)c32)cc1 (centres unmarked) [PT-1-275] | –
2.18 | – | ≥ 40 | 2.31 | – | – | COc1ccc(C(=O)CC2(O)C(=O)N(C)c3c(Cl)ccc(Cl)c32)cc1 (centres unmarked) [PT-2-69] | –
2.7 | 4.42 | ≥ 40 | – | – | – | COc1ccc(C(=O)CC2(O)C(=O)Nc3c(Cl)ccc(Cl)c32)c(OC)c1OC (centres unmarked) [PT-1-23] | –
≥ 40 | ≥ 40 | ≥ 40 | – | – | – | COc1cccc(C(=O)CC2(O)C(=O)Nc3c(Cl)ccc(Cl)c32)c1 (centres unmarked) [PT-1-18] | –
12.1 | 17 | 11.2 | – | – | – | COc1ccc(C(=O)CC2(OC)C(=O)N(C)c3c(Cl)ccc(Cl)c32)cc1 (centres unmarked) [PT-2-79] | –
12.1 | 30.1 | ≥ 40 | – | – | – | Cc1ccc(C(=O)CC2(O)C(=O)Nc3c(Cl)ccc(Cl)c32)cc1 (centres unmarked) [YK-4-280] | –
≥ 40 | 23.9 | 11 | – | – | – | O=C(CC1(O)C(=O)Nc2c(Cl)ccc(Cl)c21)c1ccc(Cl)cc1 (centres unmarked) [YK-4-275] | –
≥ 40 | ≥ 40 | ≥ 40 | – | – | – | Nc1ccc(C(=O)CC2(O)C(=O)Nc3c(Cl)ccc(Cl)c32)cc1 (centres unmarked) [YK-4-284] | –
≥ 40 | ≥ 40 | ≥ 40 | – | – | – | O=C(CC1(O)C(=O)N(Cc2ccccc2)c2c(Cl)ccc(Cl)c21)c1ccc(Cl)cc1 (centres unmarked) [YK-4-276] | –
0.982 | 0.909 | 28.1 | 1.2 | 1.41 | – | CSc1ccc(C(=O)CC2(O)C(=O)Nc3c(Cl)ccc(Cl)c32)cc1 (centres unmarked) [PT-1-67] | –
≥ 40 | ≥ 40 | ≥ 40 | – | – | – | COc1cc(C(=O)CC2(O)C(=O)Nc3c(Cl)ccc(Cl)c32)cc(OC)c1OC (centres unmarked) [PT-1-13] | –
≥ 40 | ≥ 40 | ≥ 40 | – | – | – | COc1ccc(C(=O)CC2(O)C(=O)N(C)c3ccccc32)cc1 (centres unmarked) [PT-2-64] | –
1.03 | 1.64 | ≥ 40 | – | – | – | COc1ccc(C(=O)/C=C2\C(=O)Nc3c(Cl)ccc(Cl)c32)cc1 [PT-1-33] | –
1.41 | 5.66 | 11 | – | – | – | CCOc1ccc(C(=O)/C=C2\C(=O)Nc3c(Cl)ccc(Cl)c32)cc1 [PT-1-43] | –
2.95 | 6.94 | 10.9 | – | – | – | O=C(CC1(O)C(=O)Nc2c(Cl)ccc(Cl)c21)c1ccc(C(F)(F)F)cc1 (centres unmarked) [PT-1-15] | –
≥ 40 | ≥ 40 | ≥ 40 | – | – | – | CC(C)Oc1ccc(C(=O)CC2(O)C(=O)Nc3c(Cl)ccc(Cl)c32)cc1 (centres unmarked) [PT-1-69] | –
0.291 | – | – | 0.383 | – | – | CN(C)c1ccc(C(=O)/C=C2\C(=O)Nc3c(Cl)ccc(Cl)c32)cc1 [PT-1-38] | –
≥ 40 | ≥ 40 | ≥ 40 | – | – | – | COc1ccccc1C(=O)CC1(O)C(=O)Nc2c(Cl)ccc(Cl)c21 (centres unmarked) [PT-1-12] | –
≥ 40 | ≥ 40 | ≥ 40 | – | – | – | O=C(CC1(O)C(=O)Nc2c(Cl)ccc(Cl)c21)c1ccc(O)cc1 (centres unmarked) [YK-4-289] | –
≥ 40 | ≥ 40 | ≥ 40 | – | – | – | O=C(CC1(O)C(=O)Nc2c(Cl)ccc(Cl)c21)c1ccc(Oc2ccccc2)cc1 (centres unmarked) [PT-1-60] | –
1.5 | 1.36 | – | 2.57 | 2.2 | – | COc1ccc(C(=O)/C=C2/C(=O)Nc3c(Cl)ccc(Cl)c32)cc1 [PT-1-54] | –
≥ 40 | ≥ 40 | ≥ 40 | – | – | – | COc1ccc(C(=O)CC2(OC)C(=O)Nc3c(Cl)ccc(Cl)c32)cc1 (centres unmarked) [PT-2-78] | –
≥ 40 | ≥ 40 | ≥ 40 | – | – | – | O=C(CC1(O)C(=O)Nc2c(Cl)ccc(Cl)c21)c1ccc(OC(F)(F)F)cc1 (centres unmarked) [PT-1-16] | –

IC50 [1, 4] [µM] | IC50 [2, 5] [µM] | IC50 [3, 6] [µM] | IC50 ([1]; TC32 cells) [µM] | IC50 ([2]; TC71 cells) [µM] | IC50 [3, 7] [µM] | SMILES | potency compared with YK-4-279 ([2]; TC71 cells)
≥ 40 | 4.08 | 2.2 | – | – | – | CN(C)c1ccc(C(=O)/C=C2/C(=O)Nc3c(Cl)ccc(Cl)c32)cc1 [PT-1-53] | –
4.63 | 9.15 | ≥ 40 | – | – | – | O=C(CC1(O)C(=O)Nc2c(Cl)ccc(Cl)c21)c1ccc([N+](=O)[O-])cc1 (centres unmarked) [YK-4-286] | –
8.99 | ≥ 40 | ≥ 40 | – | – | – | COc1cc(OC)cc(C(=O)CC2(O)C(=O)Nc3c(Cl)ccc(Cl)c32)c1 (centres unmarked) [PT-1-22] | –
2.7 | 3.57 | 11.1 | – | – | – | CCOc1ccc(C(=O)CC2(O)C(=O)Nc3c(Cl)ccc(Cl)c32)cc1 (centres unmarked) [PT-1-14] | –
12.4 | ≥ 40 | ≥ 40 | – | – | – | COc1ccc(C(=O)CC2(O)C(=O)Nc3ccc(Cl)cc32)cc1 (centres unmarked) [PT-2-56] | –
≥ 40 | ≥ 40 | ≥ 40 | – | – | – | CCCC(=O)CC1(O)C(=O)N(C)c2c(Cl)ccc(Cl)c21 (centres unmarked) [PT-2-71] | –
≥ 40 | ≥ 40 | ≥ 40 | – | – | – | COc1ccc(C(=O)CC2(O)C(=O)Nc3c(Cl)ccc(Cl)c32)cc1OC (centres unmarked) [PT-1-21] | –
≥ 40 | ≥ 40 | ≥ 40 | – | – | – | O=C(CC1(O)C(=O)Nc2c(Cl)ccc(Cl)c21)c1ccccc1Cl (centres unmarked) [YK-4-282] | –
8.91 | 26 | 12.7 | – | – | – | O=C(CC1(O)C(=O)Nc2c(Cl)ccc(Cl)c21)c1ccc(Br)cc1 (centres unmarked) [YK-4-283] | –
0.259 | 0.401 | ≥ 40 | 0.284 | 0.294 | – | CN(C)c1ccc(C(=O)CC2(O)C(=O)Nc3c(Cl)ccc(Cl)c32)cc1 (centres unmarked) [PT-1-17] | appeared to be more potent
1.19 | 2.14 | 2.85 | 1.61 | 1.6 | 5.16 | COc1ccc(C(=O)/C=C2\C(=O)Nc3c(Cl)ccc(Cl)c32)c(OC)c1OC [PT-1-41] | –
≥ 40 | ≥ 40 | ≥ 40 | – | – | – | COc1ccc(C(=O)CC2(O)C(=O)Nc3cc(Cl)c(Cl)cc32)cc1 (centres unmarked) [PT-2-39] | –
≥ 40 | ≥ 40 | ≥ 40 | – | – | – | COc1ccc(C(=O)CC2(O)C(=O)Nc3cc(Br)cc(Br)c32)cc1 (centres unmarked) [PT-1-271] | –
≥ 40 | ≥ 40 | ≥ 40 | – | – | – | O=C(CC1(O)C(=O)Nc2c(Cl)ccc(Cl)c21)c1ccc(F)cc1 (centres unmarked) [YK-4-278] | –
1.05 | 1.81 | 5.41 | 1.66 | 2.32 | 6.76 | COc1ccc(C(=O)/C=C2\C(=O)Nc3c(Cl)ccc(Cl)c32)c(OC)c1 [PT-1-39] | –
3 | 9.35 | ≥ 40 | – | – | – | O=C(CC1(O)C(=O)Nc2c(Cl)ccc(Cl)c21)c1ccc(Cl)c(Cl)c1Cl (centres unmarked) [YK-4-288] | –
7.22 | 29.6 | ≥ 40 | – | – | – | O=C(CC1(O)C(=O)Nc2c(Cl)ccc(Cl)c21)c1cccc(Cl)c1 (centres unmarked) [YK-4-281] | –
10.3 | 12.3 | ≥ 40 | – | – | – | N#Cc1ccc(C(=O)CC2(O)C(=O)Nc3c(Cl)ccc(Cl)c32)cc1 (centres unmarked) [PT-1-11] | –
≥ 40 | ≥ 40 | ≥ 40 | – | – | – | O=C(CC1(O)C(=O)Nc2c(Cl)ccc(Cl)c21)c1ccc(I)cc1 (centres unmarked) [YK-4-277] | –
≥ 40 | ≥ 40 | ≥ 40 | – | – | – | COc1ccc(C(=O)CC2(O)C(=O)Nc3c(Cl)cccc32)cc1 (centres unmarked) [PT-2-52] | –
≥ 40 | ≥ 40 | ≥ 40 | – | – | – | COc1ccc(C(=O)CC2(O)C(=O)Nc3ccccc32)cc1 (centres unmarked) [PT-1-267] | –
≥ 40 | ≥ 40 | ≥ 40 | – | – | – | COc1ccc(CC(=O)CC2(O)C(=O)Nc3c(Cl)ccc(Cl)c32)cc1 (centres unmarked) [PT-2-59] | –
≥ 40 | ≥ 40 | ≥ 40 | – | – | – | C/C=C1\NC(=O)C(O)(CC(=O)c2ccc(OC)cc2)\C1=C/C (centres unmarked) [PT-2-37] | –
≥ 40 | ≥ 40 | ≥ 40 | – | – | – | O=C(CC1(O)C(=O)Nc2c(Cl)ccc(Cl)c21)c1ccccc1 (centres unmarked) [YK-4-285] | –
≥ 40 | ≥ 40 | ≥ 40 | – | – | – | COc1cccc(C(=O)CC2(O)C(=O)Nc3c(Cl)ccc(Cl)c32)c1OC (centres unmarked) [PT-1-20] | –
